The values that follow come from ChEMBL document CHEMBL1201862, “PubChem BioAssay data set” (2004).

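Following 48 hours of exposure in 96-well plates, responses at five concentrations were used to interpolate endpoints linearly. GI50 = concentration required for 50% inhibition of growth.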 Calls of active or inactive are those of the source. No stated cut-off is given here; in the data, active = GI50 up to about 1.1 µM and inactive = higher. Bounds are passed on as bounds.

Among the test systems are SF-295; DU-145; EKVX; MDA-MB-231; A498; HL-60; MCF7; OVCAR-3; CCRF-CEM; KM12; SNB-19; HT-29; U-251; SNB-75; HOP-92; NCI/ADR-RES; SF-268; IGROV-1; SF-539; MOLT-4.
Common to all, as to experiment: NCI tumour cell line growth inhibition, 48 h

On to `CC(O)(CNS(=O)(=O)c1ccccc1)c1ccccc1` (stereo unspecified), for which the GI50 with SF-295, in the assay on DU-145, in the assay with EKVX, with MDA-MB-231, in the assay on A498 and in the assay on HL-60 was > 100 µM (inactive) in each case. Further, the GI50 with MCF7, in the assay with OVCAR-3, with CCRF-CEM, in the assay on KM12, in the assay on SNB-19 and in the assay with HT-29 was > 100 µM (inactive) in each case. The GI50 with U-251, in the assay on SNB-75, in the assay with HOP-92, in the assay on NCI/ADR-RES, in the assay on SF-268 and in the assay on IGROV-1 was > 100 µM (inactive) in each case.
For `CN(C)c1ccc(/C=c2\c3ccccc3n3c2cc(-c2ccccc2)[n+]3C)cc1`, the GI50 in the assay on SF-295 is 0.213 µM (active); in the assay on SF-539, 0.0406 µM (active); with DU-145, 0.222 µM (active); in the assay with EKVX it was 0.32 µM (active); in the assay on MDA-MB-231, 0.222 µM (active); in the assay with A498, 1.42 µM (inactive). Moreover, the GI50 in the assay on HL-60 was 0.0283 µM (active); with MCF7, 0.124 µM (active); in the assay with OVCAR-3, 0.0752 µM (active); with CCRF-CEM, 0.0635 µM (active); in the assay with MOLT-4, 0.0914 µM (active); with KM12 it was 0.185 µM (active). Moreover, the GI50 is 0.0771 µM (active) with SNB-19; 0.0891 µM (active) with HT-29; 0.0322 µM (active) with U-251; 0.061 µM (active) with SNB-75; 0.284 µM (active) in the assay with HOP-92; 4.45 µM (inactive) in the assay on NCI/ADR-RES. In addition, the values for the GI50 in the assay with SF-268 and in the assay with IGROV-1 were 0.261 µM (active) and 0.0689 µM (active), respectively.
In the case of `NC(=O)CC(N)c1nnn[nH]1` (stereo unspecified), the GI50 with SF-295, in the assay with SF-539, with DU-145, in the assay with EKVX, in the assay with MDA-MB-231 and with A498 was > 100 µM (inactive) each time. The GI50 in the assay with HL-60, in the assay with MCF7, in the assay with OVCAR-3, with CCRF-CEM, in the assay on MOLT-4 and in the assay with KM12 was > 100 µM (inactive) throughout. The GI50 in the assay on SNB-19, with HT-29, in the assay on U-251, in the assay with SNB-75, in the assay with HOP-92 and with NCI/ADR-RES was > 100 µM (inactive) each time. Also, the GI50 in the assay on SF-268 and in the assay on IGROV-1 was > 100 µM (inactive) throughout.
Consider `ClCc1nc2ccccc2[nH]1`, for which the GI50 in the assay with SF-295, with SF-539, with DU-145, in the assay on EKVX, with MDA-MB-231 and in the assay with A498 was > 100 µM (inactive) throughout. Moreover, the GI50 in the assay with HL-60 is > 100 µM (inactive); in the assay on MCF7, 99.1 µM (inactive); in the assay on OVCAR-3, > 100 µM (inactive); in the assay on CCRF-CEM, > 100 µM (inactive); in the assay with MOLT-4 it was 54 µM (inactive); with KM12, > 100 µM (inactive). The GI50 with SNB-19 is > 100 µM (inactive); in the assay on HT-29, > 100 µM (inactive); with U-251 it was > 100 µM (inactive); with SNB-75, 66.8 µM (inactive); with HOP-92, > 100 µM (inactive); with NCI/ADR-RES, > 100 µM (inactive). Also, the GI50 in the assay with SF-268 and in the assay with IGROV-1 was > 100 µM (inactive) in each case.
Take `CCCCc1nc(C)oc1C(C)C`: the GI50 in the assay on SF-295, in the assay on SF-539, in the assay on DU-145, in the assay on EKVX, in the assay with MDA-MB-231 and in the assay with A498 was > 100 µM (inactive) each time. The GI50 with HL-60, with MCF7, with OVCAR-3, in the assay with CCRF-CEM, with MOLT-4 and with KM12 was > 100 µM (inactive) in each case. Moreover, the GI50 in the assay on HT-29, in the assay on U-251, in the assay on SNB-75, with HOP-92, with NCI/ADR-RES and in the assay with SF-268 was > 100 µM (inactive) each time. For the same compound, the GI50 in the assay with IGROV-1 is > 100 µM (inactive).
In the case of `c1ccc([C@@H]2N[C@@]3(CO[Si](c4ccccc4)(c4ccccc4)c4ccccc4)CC[C@H]4CN[C@@H]2[C@H]43)cc1`, the GI50 in the assay on SF-295 was 12.4 µM (inactive); in the assay on SF-539 it was 15.3 µM (inactive); in the assay on DU-145, 10.2 µM (inactive); in the assay on EKVX, 15.3 µM (inactive); in the assay with MDA-MB-231 it was 11.8 µM (inactive); with A498, 15.3 µM (inactive). The GI50 in the assay with HL-60 is 4.36 µM (inactive); in the assay on MCF7 it was 2.99 µM (inactive); in the assay with OVCAR-3 it was 13.8 µM (inactive); in the assay with CCRF-CEM, 16 µM (inactive); with MOLT-4, 3.75 µM (inactive); in the assay on KM12, 3.62 µM (inactive). The GI50 in the assay on SNB-19 was 17.2 µM (inactive); in the assay on HT-29 it was 2.55 µM (inactive); in the assay on U-251, 16.9 µM (inactive); with HOP-92 it was 4.61 µM (inactive); in the assay on NCI/ADR-RES, 15.4 µM (inactive); in the assay with SF-268, 4.63 µM (inactive). The GI50 in the assay on IGROV-1 is 12.8 µM (inactive).
As for `Cc1ccc(Nc2nc(=O)[nH]c(=O)[nH]2)cc1N=[N+]=[N-]`, the GI50 in the assay with SF-295, with SF-539, in the assay on DU-145, in the assay with EKVX, in the assay with MDA-MB-231 and in the assay with A498 was > 100 µM (inactive) each time. For the same compound, the GI50 in the assay on HL-60, in the assay with MCF7, with OVCAR-3, with CCRF-CEM, in the assay with MOLT-4 and in the assay on KM12 was > 100 µM (inactive) in each case. For the same compound, the GI50 in the assay on SNB-19, with HT-29, in the assay on SNB-75, in the assay on HOP-92, in the assay with NCI/ADR-RES and in the assay with SF-268 was > 100 µM (inactive) each time. Moreover, in the assay on IGROV-1, the GI50 is > 100 µM (inactive).
As to `COC(=O)[C@]12CC[C@H]3CN(C(=O)OCc4ccccc4)[C@H]([C@H]31)[C@H](c1ccco1)N2S(=O)(=O)c1ccc(C)cc1`, the GI50 in the assay on SF-295 was 25.9 µM (inactive); with SF-539 it was 33.1 µM (inactive); with DU-145, 32.3 µM (inactive); in the assay on EKVX it was 44.4 µM (inactive); in the assay on MDA-MB-231, 35 µM (inactive); in the assay with A498, 27.4 µM (inactive). Besides, the GI50 in the assay with HL-60 is 16.3 µM (inactive); with MCF7, 17.5 µM (inactive); in the assay with OVCAR-3 it was 19.1 µM (inactive); in the assay with CCRF-CEM, 11.4 µM (inactive); with MOLT-4, 21.8 µM (inactive); with KM12, 19.3 µM (inactive). For the same compound, the GI50 was 34 µM (inactive) with SNB-19; 20.6 µM (inactive) in the assay with HT-29; 27.9 µM (inactive) in the assay with U-251; 12.8 µM (inactive) in the assay with HOP-92; 23.5 µM (inactive) with NCI/ADR-RES; 24.2 µM (inactive) in the assay on SF-268. Besides, in the assay on IGROV-1, the GI50 was 20.5 µM (inactive).
Take `O=S(=O)(O)CCCC1S(=O)(=O)OCCOS1(=O)=O`: the GI50 with SF-295, in the assay on SF-539, in the assay on DU-145, in the assay with EKVX, with MDA-MB-231 and with A498 was > 100 µM (inactive) each time. Further, the GI50 in the assay with HL-60, with MCF7, with OVCAR-3, with KM12, with SNB-19 and in the assay on HT-29 was > 100 µM (inactive) throughout. Further, the GI50 was > 100 µM (inactive) in the assay on U-251; 0.745 µM (active) in the assay on SNB-75; > 100 µM (inactive) in the assay with HOP-92; > 100 µM (inactive) in the assay with NCI/ADR-RES; > 100 µM (inactive) with SF-268; > 100 µM (inactive) in the assay on IGROV-1.
Turning to `FC(F)(F)c1ccc2c(c1)nc(-c1ccccc1)n2CC1CCCN2CCCCC12` (stereo unspecified), the GI50 in the assay with SF-295 is 15.1 µM (inactive); with SF-539 it was 16.4 µM (inactive); with DU-145 it was 27 µM (inactive); in the assay on EKVX it was 29.2 µM (inactive); in the assay on MDA-MB-231, 13.6 µM (inactive); with A498, 22.2 µM (inactive). In addition, the GI50 with HL-60 is 14.3 µM (inactive); in the assay with MCF7 it was 17.1 µM (inactive); with OVCAR-3 it was 23.5 µM (inactive); in the assay on MOLT-4, 25.9 µM (inactive); in the assay on KM12 it was 19.2 µM (inactive); with SNB-19, 34.8 µM (inactive). Besides, the GI50 in the assay on HT-29 is 16.1 µM (inactive); with U-251, 20.3 µM (inactive); in the assay with SNB-75, 19.3 µM (inactive); in the assay on HOP-92, 18.8 µM (inactive); in the assay on NCI/ADR-RES it was 16.3 µM (inactive); in the assay on SF-268, 15.6 µM (inactive). Further, the GI50 with IGROV-1 is 18.3 µM (inactive).
